Calls of active or inactive are those of the source.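 Rule for the calls: active = cell killing, with a fitted active concentration at or below twice the top valid dose tested; inconclusive = flat partial cell loss, or a poor curve fit; inactive = effect in the rising direction, plus the rest.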
Tested on: not listed separately
Assay: A549 lung cell viability reduction – CellTiter-Glo luminescence, dry powder, cytotoxicity control, dose response (AID 743483)
Settings: A549 viability, CellTiter-Glo ATP luminescence, 72 h; at 12 µM (top of the series)

Question: With C[C@H](CO)N1C[C@H](C)[C@H](CN(C)C(=O)Nc2ccccc2)OCCCC[C@H](C)Oc2ccc(NC(=O)CCC(F)(F)F)cc2C1=O as the molecule, how does the activity change, negative = cytotoxicity read?
Answer: 12.7% (inactive)

Question: For C[C@H](CO)N1C[C@H](C)[C@H](CN(C)C(=O)Nc2ccc(F)cc2)OCCCC[C@H](C)Oc2ccc(NC(=O)C3CCCC3)cc2C1=O, which activity change, negative = cytotoxicity is on record?
Answer: 12.9% (inactive)

Same assay, conditions: A549 viability, CellTiter-Glo ATP luminescence, 72 h; at 26 µM (top of the series)

Question: With C[C@H](CO)N1C[C@H](C)[C@H](CN(C)C(=O)Nc2ccccc2)OCCCC[C@H](C)Oc2ccc(NC(=O)C3CCCCC3)cc2C1=O as the molecule, how does the activity change, negative = cytotoxicity read?
Answer: -8.81% (inactive)

Question: Which activity change, negative = cytotoxicity does the source give for COc1ccc(NC(=O)N(C)C[C@@H]2OCCCC[C@H](C)Oc3ccc(NC(=O)NC4CCCCC4)cc3C(=O)N([C@H](C)CO)C[C@@H]2C)cc1 here?
Answer: 3.04% (inactive)

Question: For CC(=O)Nc1ccc2c(c1)C(=O)N([C@H](C)CO)C[C@H](C)[C@H](CN(C)C(=O)Nc1ccc(F)cc1)OCCCC[C@H](C)O2, which activity change, negative = cytotoxicity is on record?
Answer: -6.53% (inactive)

Question: Which activity change, negative = cytotoxicity does the source give for C[C@H](CO)N1C[C@H](C)[C@H](CN(C)C(=O)Nc2cccc3ccccc23)OCCCC[C@H](C)Oc2ccc(NC(=O)c3ccccc3)cc2C1=O here?
Answer: -18.3% (inactive)

Question: With C[C@H]1CCCCO[C@@H](CN(C)C(=O)Nc2ccc3c(c2)OCO3)[C@@H](C)CN([C@@H](C)CO)C(=O)c2cc(NC(=O)NC3CCCCC3)ccc2O1 as the molecule, how does the activity change, negative = cytotoxicity read?
Answer: -15% (inactive)

Question: For C[C@@H]1CN([C@@H](C)CO)C(=O)c2cc(NC(=O)C3CCCCC3)ccc2O[C@@H](C)CCCCO[C@@H]1CN(C)C(=O)Nc1cccc2ccccc12, which activity change, negative = cytotoxicity is on record?
Answer: -22.9% (inactive)

Question: For C[C@H](CO)N1C[C@H](C)[C@H](CN(C)C(=O)Nc2ccc(F)cc2)OCCCC[C@H](C)Oc2ccc(NC(=O)C3CCCCCC3)cc2C1=O, which activity change, negative = cytotoxicity is on record?
Answer: -13.4% (inactive)

Question: With COc1ccc(NC(=O)N(C)C[C@@H]2OCCCC[C@H](C)Oc3ccc(NC(=O)C4CCCCC4)cc3C(=O)N([C@H](C)CO)C[C@@H]2C)cc1 as the molecule, how does the activity change, negative = cytotoxicity read?
Answer: -14.8% (inactive)

Question: Which activity change, negative = cytotoxicity does the source give for C[C@H](CO)N1C[C@H](C)[C@H](CN(C)C(=O)Nc2ccc(F)cc2)OCCCC[C@H](C)Oc2ccc(NC(=O)NC3CCCCC3)cc2C1=O here?
Answer: -3.88% (inactive)

Question: For C[C@H](CO)N1C[C@H](C)[C@H](CN(C)C(=O)Nc2ccccc2)OCCCC[C@H](C)Oc2ccc(NC(=O)NC3CCCCC3)cc2C1=O, which activity change, negative = cytotoxicity is on record?
Answer: -4.06% (inactive)

Question: For C[C@H](CO)N1C[C@H](C)[C@H](CN(C)C(=O)Nc2cccc3ccccc23)OCCCC[C@H](C)Oc2ccc(NC(=O)C3CCCCC3)cc2C1=O, which activity change, negative = cytotoxicity is on record?
Answer: -19% (inactive)

Question: For C[C@@H]1CCCCO[C@@H](CN(C)C(=O)Nc2cccc3ccccc23)[C@@H](C)CN([C@H](C)CO)C(=O)c2cc(NC(=O)C3CCCCC3)ccc2O1, which activity change, negative = cytotoxicity is on record?
Answer: -24.4% (inactive)

Question: Which activity change, negative = cytotoxicity does the source give for C[C@H](CO)N1C[C@H](C)[C@H](CN(C)C(=O)Nc2ccc(F)cc2)OCCCC[C@H](C)Oc2ccc(NC(=O)C3CCC3)cc2C1=O here?
Answer: -1.54% (inactive)

Question: For C[C@H](CO)N1C[C@H](C)[C@H](CN(C)C(=O)Nc2ccccc2)OCCCC[C@H](C)Oc2ccc(NC(=O)Nc3ccc4c(c3)OCO4)cc2C1=O, which activity change, negative = cytotoxicity is on record?
Answer: -21.2% (inactive)

Question: With C[C@H](CO)N1C[C@H](C)[C@H](CN(C)C(=O)Nc2ccc3c(c2)OCO3)OCCCC[C@H](C)Oc2ccc(NC(=O)C3CCCCC3)cc2C1=O as the molecule, how does the activity change, negative = cytotoxicity read?
Answer: -3.37% (inactive)

Question: For C[C@@H]1CCCCO[C@H](CN(C)C(=O)Nc2cccc3ccccc23)[C@H](C)CN([C@@H](C)CO)C(=O)c2cc(NC(=O)C3CCCCC3)ccc2O1, which activity change, negative = cytotoxicity is on record?
Answer: -22.6% (inactive)

Question: With C[C@H](CO)N1C[C@H](C)[C@H](CN(C)C(=O)Nc2ccc(F)cc2)OCCCC[C@H](C)Oc2ccc(NC(=O)C3CCCCC3)cc2C1=O as the molecule, how does the activity change, negative = cytotoxicity read?
Answer: -8.92% (inactive)

Question: Which activity change, negative = cytotoxicity does the source give for C[C@H](CO)N1C[C@H](C)[C@H](CN(C)C(=O)Nc2cccc3ccccc23)OCCCC[C@H](C)Oc2ccc(NC(=O)NC3CCCCC3)cc2C1=O here?
Answer: -18.8% (inactive)

Question: With C[C@H](CO)N1C[C@H](C)[C@H](CN(C)C(=O)Nc2ccc(F)cc2)OCCCC[C@H](C)Oc2ccc(NC(=O)C3CCOCC3)cc2C1=O as the molecule, how does the activity change, negative = cytotoxicity read?
Answer: 4.42% (inactive)

Question: Which activity change, negative = cytotoxicity does the source give for C[C@H](CO)N1C[C@H](C)[C@H](CN(C)C(=O)Nc2cccc3ccccc23)OCCCC[C@H](C)Oc2ccc(NC(=O)CCC(F)(F)F)cc2C1=O here?
Answer: -6.54% (inactive)

Question: With CC(C)(C)c1ccc(-c2nc(-c3ccncc3)no2)cc1 as the molecule, how does the activity change, negative = cytotoxicity read?
Answer: -8.72% (inactive)

Question: For C[C@H](CO)N1C[C@H](C)[C@H](CN(C)C(=O)Nc2ccccc2)OCCCC[C@H](C)Oc2ccc(NC(=O)Nc3ccccc3)cc2C1=O, which activity change, negative = cytotoxicity is on record?
Answer: 3.79% (inactive)

Question: With C[C@H](CO)N1C[C@H](C)[C@H](CN(C)C(=O)Nc2ccc(C(F)(F)F)cc2)OCCCC[C@H](C)Oc2ccc(NC(=O)NC3CCCCC3)cc2C1=O as the molecule, how does the activity change, negative = cytotoxicity read?
Answer: -9.21% (inactive)

Question: For C[C@H](CO)N1C[C@H](C)[C@H](CN(C)C(=O)Nc2ccccc2F)OCCCC[C@H](C)Oc2ccc(NC(=O)C3CCCCC3)cc2C1=O, which activity change, negative = cytotoxicity is on record?
Answer: -18.7% (inactive)

Question: Which activity change, negative = cytotoxicity does the source give for C[C@H](CO)N1C[C@H](C)[C@H](CN(C)C(=O)Nc2ccc(F)cc2)OCCCC[C@H](C)Oc2ccc(NC(=O)Nc3ccccc3)cc2C1=O here?
Answer: -4.11% (inactive)

Question: Which activity change, negative = cytotoxicity does the source give for C[C@H](CO)N1C[C@H](C)[C@H](CN(C)C(=O)Nc2ccc3c(c2)OCO3)OCCCC[C@H](C)Oc2ccc(NC(=O)NC3CCCCC3)cc2C1=O here?
Answer: -4.36% (inactive)

Question: Which activity change, negative = cytotoxicity does the source give for C[C@H]1CCCCO[C@@H](CN(C)C(=O)Nc2ccc(F)cc2)[C@@H](C)CN([C@@H](C)CO)C(=O)c2cc(NC(=O)C3CCCCC3)ccc2O1 here?
Answer: -21.4% (inactive)

Question: Which activity change, negative = cytotoxicity does the source give for C[C@H](CO)N1C[C@H](C)[C@H](CN(C)C(=O)Nc2cccc(F)c2)OCCCC[C@H](C)Oc2ccc(NC(=O)C3CCCCC3)cc2C1=O here?
Answer: -12.5% (inactive)

Question: Which activity change, negative = cytotoxicity does the source give for C[C@@H]1CCCCO[C@H](CN(C)C(=O)Nc2cccc3ccccc23)[C@@H](C)CN([C@@H](C)CO)C(=O)c2cc(NC(=O)C3CCCCC3)ccc2O1 here?
Answer: -19.7% (inactive)

Question: With C[C@@H]1CCCCO[C@H](CN(C)C(=O)Nc2cccc3ccccc23)[C@H](C)CN([C@H](C)CO)C(=O)c2cc(NC(=O)C3CCCCC3)ccc2O1 as the molecule, how does the activity change, negative = cytotoxicity read?
Answer: -21.8% (inactive)

Question: Which activity change, negative = cytotoxicity does the source give for C[C@@H]1CCCCO[C@@H](CN(C)C(=O)Nc2cccc3ccccc23)[C@H](C)CN([C@@H](C)CO)C(=O)c2cc(NC(=O)C3CCCCC3)ccc2O1 here?
Answer: -18.7% (inactive)

Question: Which activity change, negative = cytotoxicity does the source give for C[C@@H]1CCCCO[C@@H](CN(C)C(=O)Nc2cccc3ccccc23)[C@H](C)CN([C@H](C)CO)C(=O)c2cc(NC(=O)C3CCCCC3)ccc2O1 here?
Answer: -11.3% (inactive)

Question: With C[C@H]1CCCCO[C@@H](CN(C)C(=O)Nc2ccccc2)[C@@H](C)CN([C@@H](C)CO)C(=O)c2cc(NC(=O)NC3CCCCC3)ccc2O1 as the molecule, how does the activity change, negative = cytotoxicity read?
Answer: -3.65% (inactive)

Question: With C[C@H](CO)N1C[C@H](C)[C@@H](CN(C)C(=O)Nc2cccc3ccccc23)OCCCC[C@H](C)Oc2ccc(NC(=O)C3CCCCC3)cc2C1=O as the molecule, how does the activity change, negative = cytotoxicity read?
Answer: -15.8% (inactive)

Question: For C[C@H](CO)N1C[C@H](C)[C@H](CN(C)C(=O)Nc2ccc(F)cc2)OCCCC[C@H](C)Oc2ccc(NC(=O)Nc3ccc(F)cc3)cc2C1=O, which activity change, negative = cytotoxicity is on record?
Answer: -13.3% (inactive)

Question: Which activity change, negative = cytotoxicity does the source give for C[C@H](CO)N1C[C@H](C)[C@H](CN(C)C(=O)Nc2ccc3ccccc3c2)OCCCC[C@H](C)Oc2ccc(NC(=O)C3CCCCC3)cc2C1=O here?
Answer: 2.71% (inactive)

Question: With C[C@H](CO)N1C[C@H](C)[C@H](CN(C)C(=O)Nc2ccc(F)cc2)OCCCC[C@H](C)Oc2ccc(NC(=O)C3CC3)cc2C1=O as the molecule, how does the activity change, negative = cytotoxicity read?
Answer: 2.37% (inactive)

Question: Which activity change, negative = cytotoxicity does the source give for Cc1ccc(NC(=O)N(C)C[C@@H]2OCCCC[C@H](C)Oc3ccc(NC(=O)C4CCCCC4)cc3C(=O)N([C@H](C)CO)C[C@@H]2C)cc1 here?
Answer: -2.73% (inactive)

Tested on: A549 viability, CellTiter-Glo ATP luminescence, 72 h
Assay: as above
Settings: not given

Question: For C[C@H]1CCCCO[C@@H](CN(C)S(=O)(=O)c2ccc(Cl)cc2)[C@@H](C)CN([C@@H](C)CO)C(=O)c2cc(NC(=O)NC3CCCCC3)ccc2O1, which IC50 is on record?
Answer: 19.1 µM

Question: With C[C@@H]1CN([C@H](C)CO)C(=O)c2cc(NC(=O)C3CCCCC3)ccc2O[C@@H](C)CCCCO[C@H]1CN(C)C(=O)Nc1cccc2ccccc12 as the molecule, how does the IC50 read?
Answer: 21.8 µM

Question: Which IC50 does the source give for COc1ccc(S(=O)(=O)N(C)C[C@@H]2OCCCC[C@H](C)Oc3ccc(NS(=O)(=O)c4ccc(Cl)cc4)cc3C(=O)N([C@@H](C)CO)C[C@@H]2C)cc1 here?
Answer: 22.1 µM

Question: Which IC50 does the source give for C[C@@H]1CN([C@@H](C)CO)C(=O)c2cc(NC(=O)C3CCCCC3)ccc2O[C@@H](C)CCCCO[C@H]1CN(C)C(=O)Nc1cccc2ccccc12 here?
Answer: 6.41 µM
